Experimental data: patent publication US20240051997A1, “SAP AND PEPTIDOMIMETIC COMPOSITIONS FOR REDUCING SYMPTOMS OF INFLAMMATION” (Arch Biosurgery, Inc., priority 2018, published 2024)

Tested on: Human THP-1 cells
Assay: Cytokine release by THP-1 cells stimulated with RADA-16 or LPS (PROTEOME PROFILER Array)
Format: cell-based
Protocol: The anti-inflammatory effect of a SAP was examined using an in vitro assay to assess cytokine release by human THP-1 cells in the presence of SAP. Measurement of THP-1 cell activation in response to antigen was assessed by cytokine release.
Human THP-1 cells in culture media (1×10^6 cells in 1 ml of Culture medium) were exposed to the self-assembling peptide RADARADARADARADA (“RADA-16”; SEQ ID NO: 1), at a concentration of 1 μg/well, 10 μg/well, or 100 μg/well.
Human THP-1 cells in the absence of RADA-16 were used as a control to assess the baseline level of cytokine production in “resting” non-actived THP-1 cells.
To assess cytokine release upon THP-1 cell activation, lipopolysaccharides (LPS) from Salmonella typhimurium (catalog no. L-7261; Sigma-Aldrich, St. Louis, MO) were added to THP-1 cells, at a concentration of 1 μg/ml.
The release of cytokines in response to exposure of THP-1 cells to RADA-16 (SEQ ID NO: 1) or LPS was measured using the PROTEOME PROFILER™ Array kit, commercially available as a test strip kit for detection of cytokines in solution (R&D Systems, Inc., Catalog Number ARY005). The assay was carried out according to the manufacturer's guide lines.

“RADARADARADARADA [RADA-16, self-assembling peptide]” was tested, and the “C5a (Complement Component 5a) release” value (1 mcg (1 μg/well) RADA-16) was 0, the “CD40 Ligand (CD154) release” value (1 mcg (1 μg/well) RADA-16) was 0 and the “G-CSF (CSF −, CSF-3) release” value (1 mcg (1 μg/well) RADA-16) was 0. For the same sequence, the “GM-CSF (CSF |, CSF-2) release” value (1 mcg (1 μg/well) RADA-16) was 0, the “GRO | (CXCL1) release” value (1 mcg (1 μg/well) RADA-16) was 0 and the “I-309 (CCL1) release” value (1 mcg (1 μg/well) RADA-16) was 0. For the same sequence, the “I-TAC (CXCL11) release” value (1 mcg (1 μg/well) RADA-16) was 0, the “IFN-• (Type II IFN) release” value (1 mcg (1 μg/well) RADA-16) was 0 and the “IL-1 alpha (IL-1F1) release” value (1 mcg (1 μg/well) RADA-16) was 0. For the same sequence, the “IL-1 beta (IL-1F2) release” value (1 mcg (1 μg/well) RADA-16) was 0, the “IL-1ra (IL-1F3) release” value (1 mcg (1 μg/well) RADA-16) was 22.59 and the IL-2 release (1 mcg (1 μg/well) RADA-16) was 0. The IL-4 release (1 mcg (1 μg/well) RADA-16) was 0, the IL-5 release (1 mcg (1 μg/well) RADA-16) was 0 and the IL-6 release (1 mcg (1 μg/well) RADA-16) was 0. For the same sequence, the “IL-8 (CXCL8) release” value (1 mcg (1 μg/well) RADA-16) was 0, the IL-10 release (1 mcg (1 μg/well) RADA-16) was 0 and the “IL-12 p 70 release” value (1 mcg (1 μg/well) RADA-16) was 0. For the same sequence, the IL-13 release (1 mcg (1 μg/well) RADA-16) was 0, the “IL-16 (LCF) release” value (1 mcg (1 μg/well) RADA-16) was 0 and the IL-17E release (1 mcg (1 μg/well) RADA-16) was 0. It also gave an IL-17 release (1 mcg (1 μg/well) RADA-16) of 0, an IL-23 release (1 mcg (1 μg/well) RADA-16) of 0 and an IL-27 release (1 mcg (1 μg/well) RADA-16) of 0. The IL-32 release (1 mcg (1 μg/well) RADA-16) was 0, the “IP-10 (CXCL10) release” value (1 mcg (1 μg/well) RADA-16) was 0 and the “MCP-1 (CCL2) release” value (1 mcg (1 μg/well) RADA-16) was 0. For the same sequence, the “MIP-1 | (CCL3) release” value (1 mcg (1 μg/well) RADA-16) was 0, the “MIP-1− (CCL4) release” value (1 mcg (1 μg/well) RADA-16) was 0 and the “SDF-1 (CXCL12) release” value (1 mcg (1 μg/well) RADA-16) was 0. For the same sequence, the “TNF- | (TNFSF2) release” value (1 mcg (1 μg/well) RADA-16) was 0, the “sICAM-1 (CD54) release” value (1 mcg (1 μg/well) RADA-16) was 0 and the sTREM-1 release (1 mcg (1 μg/well) RADA-16) was 0. The “C5a (Complement Component 5a) release” value (10 mcg (10 μg/well) RADA-16) was 0, the “CD40 Ligand (CD154) release” value (10 mcg (10 μg/well) RADA-16) was 0 and the “G-CSF (CSF −, CSF-3) release” value (10 mcg (10 μg/well) RADA-16) was 0. For the same sequence, the “GM-CSF (CSF |, CSF-2) release” value (10 mcg (10 μg/well) RADA-16) was 0, the “GRO | (CXCL1) release” value (10 mcg (10 μg/well) RADA-16) was 0 and the “I-309 (CCL1) release” value (10 mcg (10 μg/well) RADA-16) was 0. For the same sequence, the “I-TAC (CXCL11) release” value (10 mcg (10 μg/well) RADA-16) was 0, the “IFN-• (Type II IFN) release” value (10 mcg (10 μg/well) RADA-16) was 0 and the “IL-1 alpha (IL-1F1) release” value (10 mcg (10 μg/well) RADA-16) was 0. The “IL-1 beta (IL-1F2) release” value (10 mcg (10 μg/well) RADA-16) was 0, the “IL-1ra (IL-1F3) release” value (10 mcg (10 μg/well) RADA-16) was 0 and the IL-2 release (10 mcg (10 μg/well) RADA-16) was 0. It also gave an IL-4 release (10 mcg (10 μg/well) RADA-16) of 0, an IL-5 release (10 mcg (10 μg/well) RADA-16) of 0 and an IL-6 release (10 mcg (10 μg/well) RADA-16) of 0. The “IL-8 (CXCL8) release” value (10 mcg (10 μg/well) RADA-16) was 0, the IL-10 release (10 mcg (10 μg/well) RADA-16) was 0 and the “IL-12 p 70 release” value (10 mcg (10 μg/well) RADA-16) was 0. For the same sequence, the IL-13 release (10 mcg (10 μg/well) RADA-16) was 0, the “IL-16 (LCF) release” value (10 mcg (10 μg/well) RADA-16) was 0 and the IL-17E release (10 mcg (10 μg/well) RADA-16) was 0. It also gave an IL-17 release (10 mcg (10 μg/well) RADA-16) of 0, an IL-23 release (10 mcg (10 μg/well) RADA-16) of 0 and an IL-27 release (10 mcg (10 μg/well) RADA-16) of 0. For the same sequence, the IL-32 release (10 mcg (10 μg/well) RADA-16) was 0, the “IP-10 (CXCL10) release” value (10 mcg (10 μg/well) RADA-16) was 0 and the “MCP-1 (CCL2) release” value (10 mcg (10 μg/well) RADA-16) was 0. The “MIP-1 | (CCL3) release” value (10 mcg (10 μg/well) RADA-16) was 0, the “MIP-1− (CCL4) release” value (10 mcg (10 μg/well) RADA-16) was 0 and the “SDF-1 (CXCL12) release” value (10 mcg (10 μg/well) RADA-16) was 0. For the same sequence, the “TNF- | (TNFSF2) release” value (10 mcg (10 μg/well) RADA-16) was 0, the “sICAM-1 (CD54) release” value (10 mcg (10 μg/well) RADA-16) was 0 and the sTREM-1 release (10 mcg (10 μg/well) RADA-16) was 0. The “C5a (Complement Component 5a) release” value (100 mcg (100 μg/well) RADA-16) was 0, the “CD40 Ligand (CD154) release” value (100 mcg (100 μg/well) RADA-16) was 0 and the “G-CSF (CSF −, CSF-3) release” value (100 mcg (100 μg/well) RADA-16) was 0. For the same sequence, the “GM-CSF (CSF |, CSF-2) release” value (100 mcg (100 μg/well) RADA-16) was 0, the “GRO | (CXCL1) release” value (100 mcg (100 μg/well) RADA-16) was 0 and the “I-309 (CCL1) release” value (100 mcg (100 μg/well) RADA-16) was 0. The “I-TAC (CXCL11) release” value (100 mcg (100 μg/well) RADA-16) was 0, the “IFN-• (Type II IFN) release” value (100 mcg (100 μg/well) RADA-16) was 0 and the “IL-1 alpha (IL-1F1) release” value (100 mcg (100 μg/well) RADA-16) was 0. The “IL-1 beta (IL-1F2) release” value (100 mcg (100 μg/well) RADA-16) was 0, the “IL-1ra (IL-1F3) release” value (100 mcg (100 μg/well) RADA-16) was 0 and the IL-2 release (100 mcg (100 μg/well) RADA-16) was 0. For the same sequence, the IL-4 release (100 mcg (100 μg/well) RADA-16) was 0, the IL-5 release (100 mcg (100 μg/well) RADA-16) was 0 and the IL-6 release (100 mcg (100 μg/well) RADA-16) was 0. The “IL-8 (CXCL8) release” value (100 mcg (100 μg/well) RADA-16) was 0, the IL-10 release (100 mcg (100 μg/well) RADA-16) was 0 and the “IL-12 p 70 release” value (100 mcg (100 μg/well) RADA-16) was 0. The IL-13 release (100 mcg (100 μg/well) RADA-16) was 0, the “IL-16 (LCF) release” value (100 mcg (100 μg/well) RADA-16) was 0 and the IL-17E release (100 mcg (100 μg/well) RADA-16) was 0. It also gave an IL-17 release (100 mcg (100 μg/well) RADA-16) of 0, an IL-23 release (100 mcg (100 μg/well) RADA-16) of 0 and an IL-27 release (100 mcg (100 μg/well) RADA-16) of 0. For the same sequence, the IL-32 release (100 mcg (100 μg/well) RADA-16) was 0, the “IP-10 (CXCL10) release” value (100 mcg (100 μg/well) RADA-16) was 0 and the “MCP-1 (CCL2) release” value (100 mcg (100 μg/well) RADA-16) was 0. The “MIP-1 | (CCL3) release” value (100 mcg (100 μg/well) RADA-16) was 0, the “MIP-1− (CCL4) release” value (100 mcg (100 μg/well) RADA-16) was 0 and the “SDF-1 (CXCL12) release” value (100 mcg (100 μg/well) RADA-16) was 0. For the same sequence, the “TNF- | (TNFSF2) release” value (100 mcg (100 μg/well) RADA-16) was 0, the “sICAM-1 (CD54) release” value (100 mcg (100 μg/well) RADA-16) was 0 and the sTREM-1 release (100 mcg (100 μg/well) RADA-16) was 0. The “induction of cytokine release relative to baseline” value (resting THP-1 cells, 1, 10 or 100 μg/well, no LPS) was “did not induce cytokine release beyond baseline levels”.
